# Target: Recombinant human MALT-1 (amino acids 340-824) (Homo sapiens (Human), UniProt Q9UDY8)
# Experiment: MALT-1 inhibition assay (fluorogenic substrate Ac-LRSR-Rh110-DP)
# Format: biochemical
# Details: recombinant human MALT-1, substrate Ac-LRSR-Rh110-DP
# Protocol: MALT-1 paracaspase activity was measured using the fluorogenic substrate Ac-LRSR-Rh110-DP (purchased from Biosantan GmbH). […] The reaction was initiated by addition of substrate. Final concentrations of MALT-1 and substrate were 3 nM and 10 μM respectively. Reactions were incubated in the dark for 60 minutes at 25° C. […] Percent inhibition values were calculated from relative fluorescence units at different doses and fitted to a 4-parameter logistic curve to determine IC50 values (see Table 1).
# Recombinant human MALT-1 (amino acids 340-824), sequence (Q9UDY8 340-824): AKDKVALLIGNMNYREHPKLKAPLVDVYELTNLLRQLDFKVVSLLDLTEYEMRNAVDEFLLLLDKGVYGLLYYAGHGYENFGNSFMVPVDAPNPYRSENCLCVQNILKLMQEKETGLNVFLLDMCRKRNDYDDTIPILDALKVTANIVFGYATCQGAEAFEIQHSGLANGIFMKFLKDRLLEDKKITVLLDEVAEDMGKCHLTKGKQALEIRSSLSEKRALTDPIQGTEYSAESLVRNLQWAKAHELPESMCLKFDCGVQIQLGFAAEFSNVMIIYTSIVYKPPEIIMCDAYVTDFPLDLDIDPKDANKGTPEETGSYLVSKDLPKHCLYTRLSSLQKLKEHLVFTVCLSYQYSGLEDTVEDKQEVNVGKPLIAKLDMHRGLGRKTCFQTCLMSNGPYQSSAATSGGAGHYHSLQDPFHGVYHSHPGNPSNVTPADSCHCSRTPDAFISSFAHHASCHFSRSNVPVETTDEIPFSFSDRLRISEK
row,SMILES,IC50 [nM]
1,"CO[C@@H](C)c1c(Nc2ccc([C@H](N(C)C(=O)[C@H]3CCC(=O)N3)C(F)(F)F)cc2)cnn2cc(Cl)nc12 [CPD0082469, (2R)-N-[(1S)-1-[4-[[2-chloro-8-[(1 S)-1-methoxyethyl]imidazo[1,2-b]pyridazin-7-yl]amino]phenyl]-2,2,2-trifluoro-ethyl]-N-methyl-5-oxo-pyrrolidine-2-carboxamide]",45
2,"C[C@@H]1CCc2c(cnc3cc(Cl)nn23)N1c1ccc([C@H](N(C)C(=O)[C@H]2CC[S@](=N)(=O)CC2)C(F)(F)F)cc1 (relative stereo) [CPD0074551, (1rel r 4rel r) N-[(1S)-1-[4-[(11-rel R)-4-chloro-11-methyl-2,3,7,10-tetrazatricyclo[7.4.0.0^2,6]trideca-1(9),3,5,7-tetraen-10-yl]phenyl]-2,2,2-trifluoro-ethyl]-1-imino-N-methyl-1-oxo-thiane-4-carboxamide]",57
3,"COc1ccc2ncc(Nc3ccc([C@H](N(C)C(=O)C4CCS(=O)(=O)CC4)C(F)(F)F)cc3)c([C@@H](C)O)c2n1 (relative stereo) [CPD0084256, N-methyl-1,1-dioxo-N-[(1S)-2,2,2-trifluoro-1-[4-[[4-[(1rel R)-1-hydroxyethyl]-6-methoxy-1,5-naphthyridin-3-yl]amino]phenyl]ethyl]thiane-4-carboxamide]",38
4,"CN(C(=O)[C@H]1CNC(=O)C1)[C@H](c1ccc(N2CCCc3c2cnc2cc(Cl)nn32)cc1)C(F)(F)F (stereo in doubt) [CPD0077244, (3 rel-R)—N-[(1R)-1-[4-(4-chloro-2,3,7,10-tetrazatricyclo[7.4.0.0^2,6]trideca-1(9),3,5,7-tetraen-10-yl)phenyl]-2,2,2-trifluoro-ethyl]-N-methyl-5-oxo-pyrrolidine-3-carboxamide]",581
5,"CC(=O)N1CCC(C(=O)N(C)[C@@H](c2ccc(N3CCCc4c3cnc3cc(Cl)nn43)nc2)C(F)(F)F)CC1 [CPD0074051, 1-acetyl-N-[(1S)-1-[6-(4-chloro-2,3,7,10-tetrazatricyclo[7.4.0.0^2,6]trideca-1(9),3,5,7-tetraen-10-yl)-3-pyridyl]-2,2,2-trifluoro-ethyl]-N-methyl-piperidine-4-carboxamide]",154
6,C[C@@H]1CCN(c2ccc([C@H](N(C)C(=O)[C@@H]3CNC(=O)C3)C(F)(F)F)cc2)c2cnc3cc(Cl)nn3c21 [CPD0074548],46
7,"CN(C(=O)[C@H]1CCN(C(=O)C2(O)CC2)C1)[C@@H](c1ccc(N2CCCc3c2cnc2cc(Cl)nn32)cc1)C(F)(F)F (relative stereo) [CPD0073979, (3rel-S)-N-[(1S)-1-[4-(4-chloro-2,3,7,10-tetrazatricyclo[7.4.0.0^2,6]trideca-1(9),3,5,7-tetraen-10-yl)phenyl]-2,2,2-trifluoro-ethyl]-1-(1-hydroxycyclopropanecarbonyl)-N-methyl-pyrrolidine-3-carboxamide]",75
8,CN(C(=O)[C@@H]1CCN(C(=O)CO)C1)[C@@H](c1ccc(N2CCCc3c2cnc2cc(F)nn32)cc1)C(F)(F)F [CPD0075879],154
9,COc1ccc2ncc(Nc3ccc([C@H](N(C)C(=O)C4CCS(=O)(=O)CC4)C(F)(F)F)cc3)c(COC3CC3)c2n1 [CPD0074048],163
10,"CN(C(=O)[C@@H]1CCN(C(=O)C2(O)CC2)C1)[C@@H](c1ccc(N2CCCc3c2cnc2cc(Cl)nn32)cc1)C(F)(F)F [CPD0073978, (3rel-R)-N-[(1S)-1-[4-(4-chloro-2,3,7,10-tetrazatricyclo[7.4.0.0^2,6]trideca-1(9),3,5,7-tetraen-10-yl)phenyl]-2,2,2-trifluoro-ethyl]-1-(1-hydroxycyclopropanecarbonyl)-N-methyl-pyrrolidine-3-carboxamide]",54
11,COc1ccc2ncc(Nc3ccc([C@H](N(C)C(=O)C4CCN(C(C)=O)CC4)C(F)(F)F)cc3)c([C@@H]3CCOC3)c2n1 [CPD0082480],77
12,"CC(=O)N1CCC(C(=O)N(C)[C@@H](c2ccc(N3CCCc4c3cnc3cc(F)nn43)cc2)C(F)(F)F)CC1 [CPD0074050, 1-acetyl-N-methyl-N-[(1S)-2,2,2-trifluoro-1-(4-{4-fluoro-2,3,7,10-tetraazatricyclo[7.4.0.0^2,6]trideca-1(9),3,5,7-tetraen-10-yl}phenyl)ethyl]piperidine-4-carboxamide]",85
13,"C[C@H]1CCc2c(cnc3cc(Cl)nn23)N1c1ccc([C@H](N(C)C(=O)[C@H]2CC[S@](=N)(=O)CC2)C(F)(F)F)cc1 (relative stereo) [CPD0074564, (1rel r 4rel r) N-[(1S)-1-[4-[(11-rel S)-4-chloro-11-methyl-2,3,7,10-tetrazatricyclo[7.4.0.0^2,6]trideca-1(9),3,5,7-tetraen-10-yl]phenyl]-2,2,2-trifluoro-ethyl]-1-imino-N-methyl-1-oxo-thiane-4-carboxamide]",248
14,CO[C@@H](C)c1c(Nc2ccc([C@H](N(C)C(=O)C3CC4(C3)CS(=O)(=O)C4)C(F)(F)F)cc2)cnn2cc(Cl)nc12 [CPD0084934],54
15,"CN(C(=O)[C@H](O)C1CCS(=O)(=O)CC1)[C@@H](c1ccc(N2CCCc3c2cnc2cc(Cl)nn32)cc1)C(F)(F)F (relative stereo) [CPD0073972, (2rel-R)—N-[(1S)-1-(4-{4-chloro-2,3,7,10-tetraazatricyclo[7.4.0.0^2,6]trideca-1(9),3,5,7-tetraen-10-yl}phenyl)-2,2,2-trifluoroethyl]-2-(1,1-dioxo-1λ^e-thian-4-yl)-2-hydroxy-N-methylacetamide]",109
16,"CN(C(=O)[C@@H]1CNC(=O)C1)[C@H](c1ccc(N2CCCc3c2cnc2cc(Cl)nn32)cc1)C(F)(F)F (stereo in doubt) [CPD0077245, (3 rel-S)—N-[(1R)-1-[4-(4-chloro-2,3,7,10-tetrazatricyclo[7.4.0.0^2,6]trideca-1(9),3,5,7-tetraen-10-yl)phenyl]-2,2,2-trifluoro-ethyl]-N-methyl-5-oxo-pyrrolidine-3-carboxamide]",355
17,"COc1ccc2ncc(Nc3ccc([C@@H](N(C)C(=O)[C@H]4CC[S@](=N)(=O)CC4)C(F)(F)F)cc3)c([C@@H](C)OC)c2n1 (stereo in doubt) [CPD0077189, (1 rel-s,4rel-s)-1-imino-N-methyl-1-oxo-N-[(1R)-2,2,2-trifluoro-1-[4-({6-methoxy-4-[(1 rel-R)-1-methoxyethyl]-1,5-naphthyridin-3-yl}amino)phenyl]ethyl]-1λ^6-thiane-4-carboxamide]",274
18,"CO[C@@H](C)c1c(Nc2ccc([C@H](N(C)C(=O)[C@H]3CC[S@](=N)(=O)CC3)C(F)(F)F)cc2)cnn2cc(Cl)nc12 (relative stereo) [CPD0082473, (1rel-r, 4rel-r) N-[(1S)-1-[4-[[2-chloro-8-[(1 S)-1-methoxyethyl]imidazo[1,2-b]pyridazin-7-yl]amino]phenyl]-2,2,2-trifluoro-ethyl]-1-imino-N-methyl-1-oxo-thiane-4-carboxamide]",52
19,"CO[C@@H](C)c1c(Nc2ccc([C@H](N(C)C(=O)[C@H]3CC[S@@](=N)(=O)CC3)C(F)(F)F)cc2)cnn2cc(Cl)nc12 (relative stereo) [CPD0082474, (1rel-s,4rel-s) N-[(1 S)-1-[4-[[2-chloro-8-[(1S)-1-methoxyethyl]imidazo[1,2-b]pyridazin-7-yl]amino]phenyl]-2,2,2-trifluoro-ethyl]-1-imino-N-methyl-1-oxo-thiane-4-carboxamide]",50
20,"COc1ccc2ncc(Nc3ccc([C@H](N(C)C(=O)C4CCS(=O)(=O)CC4)C(F)(F)F)cc3)c([C@H](C)N)c2n1 (relative stereo) [CPD0084307, N-[(1 S)-1-[4-[[4-[(1rel S)-1-aminoethyl]-6-methoxy-1,5-naphthyridin-3-yl]amino]phenyl]-2,2,2-trifluoroo-ethyl]-N-methyl-1,1-dioxo-thiane-4-carboxamide]",124
21,"CN1C[C@@H](C(=O)N(C)[C@@H](c2ccc(N3CCCc4c3cnc3cc(Cl)nn43)cc2)C(F)(F)F)NC1=O (relative stereo) [CPD0075574, (4rel S)-N-[(1S)-1-[4-(4-chloro-2,3,7,10-tetrazatricyclo[7.4.0.0^2,6]trideca-1(9),3,5,7-tetraen-10-yl)phenyl]-2,2,2-trifluoro-ethyl]-N,1-dimethyl-2-oxo-imidazolidine-4-carboxamide]",80
22,C[C@H]1CCN(c2ccc([C@H](N(C)C(=O)[C@@H]3CNC(=O)C3)C(F)(F)F)cc2)c2cnc3cc(Cl)nn3c21 [CPD0074569],30
23,CN(C(=O)[C@H]1C[C@@H](O)C1)[C@@H](c1ccc(N2CCCc3c2cnc2cc(Cl)nn32)cc1)C(F)(F)F [CPD0074538],57
24,CN1C[C@H](C(=O)N(C)[C@@H](c2ccc(N3CCCc4c3cnc3cc(Cl)nn43)cc2)C(F)(F)F)NC1=O (relative stereo) [CPD0075577],42
25,"C[C@H]1CCc2c(cnc3cc(Cl)nn23)N1c1ccc([C@H](N(C)C(=O)[C@H]2CC[S@@](=N)(=O)CC2)C(F)(F)F)cc1 (relative stereo) [CPD0074565, (1rel s 4rel s) N-[(1S)-1-[4-[(11-rel S)-4-chloro-11-methyl-2,3,7,10-tetrazatricyclo[7.4.0.0^2,6]trideca-1(9),3,5,7-tetraen-10-yl]phenyl]-2,2,2-trifluoro-ethyl]-1-imino-N-methyl-1-oxo-thiane-4-carboxamide]",377
26,COc1ccc2ncc(Nc3ccc([C@H](N(C)C(=O)C4CCN(C(=O)CO)CC4)C(F)(F)F)cc3)c([C@@H]3CCOC3)c2n1 [CPD0082482],72
27,"CN(C(=O)C1CNC(=O)N1)[C@@H](c1ccc(N2CCCc3c2cnc2cc(Cl)nn32)cc1)C(F)(F)F (stereo in doubt) [CPD0075579, (4rel R)-N-[(1S)-1-[4-(4-chloro-2,3,7,10-tetrazatricyclo[7.4.0.0^2,6]trideca-1(9),3,5,7-tetraen-10-yl)phenyl]-2,2,2-trifluoro-ethyl]-N-methyl-2-oxo-imidazolidine-4-carboxamide]",44
